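Five compound concentrations were applied to cells in 96-well plates for 48 hours; endpoints were derived by simple linear interpolation of the resulting dose-response curve. Definition used: TGI = concentration required for complete inhibition of growth.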
Assays:
Assay in all cases: NCI tumour cell line growth inhibition, 48 h
[1] = system: HOP-92 NSCLC
[2] = system: HT29 colon
[3] = system: SK-MEL-2 melanoma
[4] = system: BT-549 breast
[5] = system: HL-60(TB) leukemia
[6] = system: ACHN renal
[7] = system: U251 CNS
[8] = system: IGROV1 ovarian
[9] = system: SK-OV-3 ovarian
[10] = system: MDA-N
[11] = system: MDA-MB-231 breast
[12] = system: OVCAR-3 ovarian
[13] = system: M14 melanoma
[14] = system: SF-539 CNS
[15] = system: SR leukemia
[16] = system: A549 NSCLC
[17] = system: UACC-62 melanoma
[18] = system: LOX IMVI melanoma
[19] = system: SNB-75 CNS
[20] = system: K-562 leukemia
[21] = system: MALME-3M melanoma
[22] = system: HCT-116 colon
[23] = system: NCI/ADR-RES ovarian
[24] = system: MDA-MB-435
[25] = system: 786-0 renal
[26] = system: OVCAR-8 ovarian
[27] = system: MOLT-4 leukemia
[28] = system: SK-MEL-28 melanoma
[29] = system: KM12 colon
[30] = system: SF-295 CNS
[31] = system: SN12C renal
[32] = system: SNB-19 CNS
[33] = system: RPMI-8226 leukemia
[34] = system: SW-620 colon
[35] = system: UO-31 renal
[36] = system: NCI-H226 lung
[37] = system: UACC-257 melanoma
[38] = system: EKVX NSCLC
[39] = system: HS 578T breast
[40] = system: NCI-H460 lung
[41] = system: A498 renal
[42] = system: OVCAR-4 ovarian
[43] = system: MCF7 breast
[44] = system: HCT-15 colon
[45] = system: HCC-2998 colon
[46] = system: SF-268 CNS
[47] = system: OVCAR-5 ovarian
[48] = system: T-47D breast
[49] = system: TK-10 renal
[50] = system: NCI-H522 lung
[51] = system: DU-145 prostate
[52] = system: PC-3 prostate
[53] = system: HOP-62 NSCLC
[54] = system: CCRF-CEM leukemia
[55] = system: RXF 393 renal
[56] = system: NCI-H23 lung
[57] = system: SK-MEL-5 melanoma
[58] = system: CAKI-1 renal
[59] = system: COLO 205 colon
[60] = system: KM20L2 colon
[61] = system: DMS 114 small cell lung
[62] = system: DMS 273 small cell lung
[63] = system: M19-MEL melanoma
[64] = system: DLD-1 colon
[65] = system: LXFL 529 NSCLC

Measured: TGI

BrCc1ccc(CBr)c2c1-c1c(CBr)ccc3ccc(CBr)c-2c13
not listed: [54] | [55] | [56] | [57] | [58] | [59] | [60] | [61] | [62] | [63] | [64] | [65]
> 100 µM: all other assays above

FC(F)(F)c1cccnc1Sc1nc2ccccc2s1
not listed: [5] | [9] | [18] | [60] | [61] | [62] | [63] | [64] | [65]
> 100 µM: all other assays above

O=[N+]([O-])C(=C/c1cccc2ccccc12)/C(=C\c1cccc2ccccc12)[N+](=O)[O-]
5.14 µM: [11]
55.3 µM: [3]
6.12 µM: [24]
4.36 µM: [56]
8.19 µM: [30]
5.13 µM: [2]
> 24.3 µM: [52]
19.1 µM: [9]
3.72 µM: [25]
15.5 µM: [12]
8.59 µM: [27]
7.03 µM: [53]
4.68 µM: [58]
10.6 µM: [48]
11.3 µM: [13]
13.7 µM: [36]
5.41 µM: [45]
3.66 µM: [35]
4.77 µM: [54]
4.25 µM: [1]
3.63 µM: [50]
5.63 µM: [14]
11.5 µM: [32]
4.13 µM: [8]
3.06 µM: [18]
7.2 µM: [22]
5.44 µM: [37]
7.67 µM: [46]
3.95 µM: [44]
7.29 µM: [26]
3.23 µM: [17]
7.92 µM: [40]
4.05 µM: [28]
16 µM: [29]
4.26 µM: [4]
17.1 µM: [39]
3.67 µM: [55]
5.49 µM: [21]
7.06 µM: [42]
4.5 µM: [34]
8.25 µM: [10]
5.79 µM: [23]
8.77 µM: [51]
9.03 µM: [15]
16.8 µM: [43]
4.21 µM: [6]
6.45 µM: [57]
> 21.7 µM: [59]
21.8 µM: [19]
4.32 µM: [7]
6.05 µM: [33]
11.6 µM: [38]
6.55 µM: [31]
33.5 µM: [41]
4.65 µM: [49]
> 58.6 µM: [16]
12.3 µM: [47]
> 25.9 µM: [20]

C=C[C@]1(O[Si](C)(C)C)C[C@@]2(C(=O)OCC)C(O)C(=O)N3CCc4cc(OC)c(OC)cc4[C@]312 (stereo partly drawn)
not listed: [5] | [45] | [50] | [60] | [61] | [62] | [63] | [64] | [65]
> 100 µM: all other assays above

COC1=C2CC(C)CC(OC)C(OC(=O)CCCN)C(C)/C=C(\C)C(OC(N)=O)C(OC)/C=C\C=C(/C)C(=O)NC(=CC1=O)C2=O (stereo not drawn)
31.1 µM: [30]
32.5 µM: [33]
23.8 µM: [47]
20.7 µM: [10]
21.6 µM: [26]
23.1 µM: [35]
1.65 µM: [5]
18.1 µM: [25]
16.8 µM: [12]
14.5 µM: [44]
20.4 µM: [42]
30.6 µM: [41]
15.8 µM: [4]
24.9 µM: [32]
17.7 µM: [34] | [37]
20.2 µM: [49]
30.5 µM: [51]
25.7 µM: [29]
14.6 µM: [1]
19.4 µM: [20] | [45]
23.3 µM: [58]
40.7 µM: [39]
43.7 µM: [23]
32 µM: [53]
1.96 µM: [50]
55.1 µM: [16]
14.9 µM: [21]
13.2 µM: [2] | [43]
12.4 µM: [24]
18.6 µM: [8]
9.48 µM: [59]
26.6 µM: [38]
25.6 µM: [55]
22.4 µM: [57] | [52]
26.9 µM: [3]
35.1 µM: [9]
3.81 µM: [27]
21.5 µM: [15]
18.7 µM: [17]
17.6 µM: [13]
15.9 µM: [22]
3.59 µM: [54]
16.1 µM: [31]
36.3 µM: [19]
4.65 µM: [48]
36.5 µM: [40]
17.8 µM: [6]
23.7 µM: [28]
33.3 µM: [36]
24.6 µM: [46]
36.1 µM: [11]
11.4 µM: [18]
14.4 µM: [56]
16.9 µM: [14]
34.5 µM: [7]

O=C(O)C12CC3CC(C1)C2C=C3P(=O)(O)O (stereo not drawn)
not listed: [4] | [10] | [11] | [14] | [15] | [16] | [23] | [24] | [25] | [32] | [39] | [41] | [43] | [48] | [51] | [52] | [57]
> 100 µM: all other assays above

CC(=O)Nc1ccc(S(=O)(=O)NN(C)S(=O)(=O)c2ccc(C)cc2)cc1
not listed: [4] | [7] | [10] | [11] | [18] | [19] | [23] | [24] | [36] | [39] | [43] | [44] | [48] | [51] | [52] | [62] | [65]
> 100 µM: all other assays above

Source: PubChem BioAssay (NCI)
